Data reported in PMC7305236, “The atypical chemokine receptor ACKR3/CXCR7 is a broad-spectrum scavenger for opioid peptides” (Nature Communications, 2020).
Read-outs that look alike come from different tables or passages of the source. Starred links: 1 amine or outer side, 2 acyl side, 3 side chain; linkers in the order of their positions; H or OH if unused. Non-standard residues stand in square brackets, D forms with d. Residues, ends and D or L forms follow the SMILES beside them. X1 = N[C@@H](Cc1ccccc1)CN(CC(=O)[*:2])[*:1]

Experiments:
Assay in all cases: Figure S2a opioid peptide screen on chemokine receptors
Assay type in all cases: cell-based
Parameters in all cases: dose or concentration left out as unconfirmed
CCR9 = biological target: T1, CCR9 (Homo sapiens, UniProt P51686)
T1 construct: expressed in transfected cells
T1 sequence (P51686 1-369): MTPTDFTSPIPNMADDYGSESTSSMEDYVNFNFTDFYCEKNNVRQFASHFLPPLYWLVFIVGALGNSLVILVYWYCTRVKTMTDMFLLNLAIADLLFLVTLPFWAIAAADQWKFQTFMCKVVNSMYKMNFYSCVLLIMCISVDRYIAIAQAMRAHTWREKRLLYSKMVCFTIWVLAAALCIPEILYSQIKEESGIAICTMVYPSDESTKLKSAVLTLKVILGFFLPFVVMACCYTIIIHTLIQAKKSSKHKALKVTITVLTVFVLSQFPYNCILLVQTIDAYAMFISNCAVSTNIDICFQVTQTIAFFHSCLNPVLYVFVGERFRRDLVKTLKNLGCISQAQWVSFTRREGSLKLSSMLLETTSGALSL

CCR4 = biological target: T2, CCR4 (Homo sapiens, UniProt P51679)
T2 construct: expressed in transfected cells
T2 sequence (P51679 1-360): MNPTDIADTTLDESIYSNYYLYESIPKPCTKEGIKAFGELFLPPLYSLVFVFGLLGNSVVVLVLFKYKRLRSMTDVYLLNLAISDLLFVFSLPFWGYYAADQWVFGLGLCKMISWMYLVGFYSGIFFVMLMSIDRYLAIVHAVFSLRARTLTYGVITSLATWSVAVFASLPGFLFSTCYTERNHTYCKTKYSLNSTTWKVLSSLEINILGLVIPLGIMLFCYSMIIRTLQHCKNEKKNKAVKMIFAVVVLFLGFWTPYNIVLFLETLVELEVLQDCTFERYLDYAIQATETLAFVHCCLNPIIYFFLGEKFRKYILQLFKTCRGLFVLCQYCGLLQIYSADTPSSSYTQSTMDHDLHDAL

CCR10 = biological target: T3, CCR10 (Homo sapiens, UniProt P46092)
T3 construct: expressed in transfected cells
T3 sequence (P46092 1-362): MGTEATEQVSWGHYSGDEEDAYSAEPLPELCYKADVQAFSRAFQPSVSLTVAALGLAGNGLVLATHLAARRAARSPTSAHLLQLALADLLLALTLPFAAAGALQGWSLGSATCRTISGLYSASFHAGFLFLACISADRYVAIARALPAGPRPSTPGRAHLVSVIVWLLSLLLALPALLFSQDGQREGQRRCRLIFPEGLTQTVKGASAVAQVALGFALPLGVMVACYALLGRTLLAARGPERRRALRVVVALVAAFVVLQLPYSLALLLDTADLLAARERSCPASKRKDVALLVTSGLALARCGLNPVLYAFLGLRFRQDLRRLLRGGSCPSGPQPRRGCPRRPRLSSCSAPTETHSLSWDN

CXCR2 = biological target: T4, CXCR2 (Homo sapiens, UniProt P25025)
T4 construct: expressed in transfected cells
T4 sequence (P25025 1-360): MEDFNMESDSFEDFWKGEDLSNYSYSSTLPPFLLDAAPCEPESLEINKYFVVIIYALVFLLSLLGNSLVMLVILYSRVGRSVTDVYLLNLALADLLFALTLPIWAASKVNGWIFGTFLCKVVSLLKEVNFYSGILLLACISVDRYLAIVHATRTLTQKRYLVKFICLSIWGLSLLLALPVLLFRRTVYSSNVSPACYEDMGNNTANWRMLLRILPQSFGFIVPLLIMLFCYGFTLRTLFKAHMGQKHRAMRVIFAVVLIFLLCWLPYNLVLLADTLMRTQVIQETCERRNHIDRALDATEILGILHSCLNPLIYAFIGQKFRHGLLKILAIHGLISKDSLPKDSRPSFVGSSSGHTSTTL

CXCR1 = biological target: T5, CXCR1 (Homo sapiens, UniProt P25024)
T5 construct: expressed in transfected cells
T5 sequence (P25024 1-350): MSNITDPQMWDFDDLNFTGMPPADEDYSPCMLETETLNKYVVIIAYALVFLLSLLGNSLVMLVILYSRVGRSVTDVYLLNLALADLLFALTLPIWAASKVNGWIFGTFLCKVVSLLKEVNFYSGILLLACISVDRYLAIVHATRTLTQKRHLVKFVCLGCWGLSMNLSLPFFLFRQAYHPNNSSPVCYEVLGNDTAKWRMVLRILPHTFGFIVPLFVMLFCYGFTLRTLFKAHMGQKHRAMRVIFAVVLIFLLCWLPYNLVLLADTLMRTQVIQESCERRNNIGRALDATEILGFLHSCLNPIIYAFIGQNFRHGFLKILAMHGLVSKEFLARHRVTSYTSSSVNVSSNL

[1] = replicate 1, read-out: CCR9 activity, ctrl+ = 100
[2] = replicate 2, read-out: CCR9 activity, ctrl+ = 100
[3] = replicate 3, read-out: CCR9 activity, ctrl+ = 100
[4] = replicate 1, read-out: CCR4 activity, ctrl+ = 100
[5] = replicate 2, read-out: CCR4 activity, ctrl+ = 100
[6] = replicate 3, read-out: CCR4 activity, ctrl+ = 100
[7] = replicate 1, read-out: CCR10 activity, ctrl+ = 100
[8] = replicate 2, read-out: CCR10 activity, ctrl+ = 100
[9] = replicate 3, read-out: CCR10 activity, ctrl+ = 100
[10] = replicate 1, read-out: CXCR2 activity, ctrl+ = 100
[11] = replicate 2, read-out: CXCR2 activity, ctrl+ = 100
[12] = replicate 3, read-out: CXCR2 activity, ctrl+ = 100
[13] = replicate 1, read-out: CXCR1 activity, ctrl+ = 100
[14] = replicate 2, read-out: CXCR1 activity, ctrl+ = 100
[15] = replicate 3, read-out: CXCR1 activity, ctrl+ = 100

SMILES | activation (CCR9; [1]) | activation (CCR9; [2]) | activation (CCR9; [3]) | activation (CCR4; [4]) | activation (CCR4; [5]) | activation (CCR4; [6]) | activation (CCR10; [7]) | activation (CCR10; [8]) | activation (CCR10; [9]) | activation (CXCR2; [10]) | activation (CXCR2; [11]) | activation (CXCR2; [12]) | activation (CXCR1; [13]) | activation (CXCR1; [14]) | activation (CXCR1; [15])
CSCC[C@H](NC(=O)[C@H](Cc1ccccc1)NC(=O)CNC(=O)CNC(=O)[C@@H](N)Cc1ccc(O)cc1)C(=O)N[C@@H](CCCNC(=N)N)C(=O)N[C@@H](CCCNC(=N)N)C(=O)N[C@H](C(N)=O)C(C)C [Adrenorphin] | 0.345% | -0.997% | 2.74% | -4.72% | -4.07% | 2.73% | 1.18% | -7.52% | -2% | 3.42% | -6.62% | -0.394% | 0.451% | 0.739% | -0.427%
C[C@H](NC(=O)CNC(=O)[C@@H](NC(=O)[C@H](Cc1ccccc1)NC(=O)CNC(=O)CNC[C@@H](N)Cc1ccccc1)[C@@H](C)O)C(=O)N[C@@H](CCCNC(=N)N)C(=O)N[C@@H](CCCCN)C(=O)N[C@@H](CO)C(=O)N[C@@H](C)C(=O)N[C@@H](CCCNC(=N)N)C(=O)N[C@@H](CCCCN)C(N)=O [FG Nociceptin 1-13] (H-[X1]GFTGARKSARK-NH2) | -2.13% | 0.443% | 0.538% | -0.803% | -1.43% | -2.08% | -1.11% | -2.39% | 7.95% | -5.21% | -6.16% | -0.318% | -0.231% | 1.41% | 1.07%
CC(C)C[C@H](NC(=O)[C@H](CCCCN)NC(=O)[C@H](CCCN=C(N)N)NC(=O)[C@H](C)NC(=O)[C@H](CO)NC(=O)[C@H](CCCCN)NC(=O)[C@H](CCCN=C(N)N)NC(=O)[C@H](C)NC(=O)CNC(=O)[C@@H](NC(=O)[C@H](Cc1ccccc1)NC(=O)CNC(=O)CNC(=O)[C@@H](N)Cc1ccccc1)[C@@H](C)O)C(=O)N[C@@H](C)C(=O)N[C@@H](CC(N)=O)C(=O)N[C@@H](CCC(N)=O)C(=O)O [Nociceptin] | 0.361% | 3.44% | – | -2.47% | -0.825% | – | -2.56% | -4.7% | – | -2.08% | -14.7% | – | -0.193% | 0.511% | –
CSCC[C@H](NC(=O)[C@H](Cc1ccccc1)NC(=O)CNC(=O)CNC(=O)[C@@H](N)Cc1ccc(O)cc1)C(=O)N[C@@H](CCCNC(=N)N)C(=O)N[C@@H](CCCNC(=N)N)C(=O)N[C@H](C(=O)NCC(=O)N[C@@H](CCCNC(=N)N)C(=O)N1CCC[C@H]1C(=O)N[C@@H](CCC(=O)O)C(=O)N[C@@H](Cc1c[nH]c2ccccc12)C(=O)N[C@@H](Cc1c[nH]c2ccccc12)C(=O)N[C@@H](CCSC)C(=O)N[C@@H](CC(=O)O)C(=O)N[C@@H](Cc1ccc(O)cc1)C(=O)N[C@@H](CCC(N)=O)C(=O)N[C@@H](CCCCN)C(=O)N[C@@H](CCCNC(=N)N)C(=O)N[C@@H](Cc1ccc(O)cc1)C(=O)NCC(=O)O)C(C)C [BAM22] | -0.202% | -2.13% | 5.56% | -0.405% | -3.44% | 3.02% | -2.23% | -4.92% | -3.25% | -3.38% | -4.91% | -1.55% | 0.211% | 0.0913% | -0.539%
CC[C@H](C)[C@H](NC(=O)[C@H](CCCNC(=N)N)NC(=O)[C@H](CCCNC(=N)N)NC(=O)[C@H](CC(C)C)NC(=O)[C@H](Cc1ccccc1)NC(=O)CNC(=O)CNC(=O)[C@@H](N)Cc1ccc(O)cc1)C(=O)N[C@@H](CCCNC(=N)N)C(=O)N1CCC[C@H]1C(=O)N[C@@H](CCCCN)C(=O)N[C@@H](CC(C)C)C(=O)N[C@@H](CCCCN)C(=O)O [Dynorphin 1-13] | -2.31% | -1.58% | – | 0.25% | -3.89% | – | -2.25% | -4.52% | – | -2.31% | -22.4% | – | 0.218% | -1.21% | –
C[C@H](NC(=O)CNC(=O)[C@@H](NC(=O)[C@H](Cc1ccccc1)NC(=O)CNC(=O)CNC(=O)[C@@H](N)Cc1ccccc1)[C@@H](C)O)C(=O)N[C@@H](CCCNC(=N)N)C(=O)N[C@@H](CCCCN)C(=O)N[C@@H](CO)C(=O)N[C@@H](C)C(=O)N[C@@H](CCCNC(=N)N)C(=O)N[C@@H](CCCCN)C(N)=O [Nociceptin 1-13] | -3.6% | -1.89% | 2.5% | -0.0637% | 0.246% | 0.411% | 2.26% | -5.16% | 3.57% | -8.55% | -9.95% | -4.53% | 0.237% | 1.23% | -0.725%
CC[C@H](C)[C@H](NC(=O)[C@H](CCCNC(=N)N)NC(=O)[C@H](CCCNC(=N)N)NC(=O)[C@H](CC(C)C)NC(=O)[C@H](Cc1ccccc1)NC(=O)CNC(=O)CNC(=O)[C@@H](N)Cc1ccc(O)cc1)C(=O)N[C@@H](CCCNC(=N)N)C(=O)N1CCC[C@H]1C(=O)N[C@@H](CCCCN)C(=O)N[C@@H](CC(C)C)C(=O)N[C@@H](CCCCN)C(=O)N[C@@H](Cc1c[nH]c2ccccc12)C(=O)N[C@@H](CC(=O)O)C(=O)N[C@@H](CC(N)=O)C(=O)N[C@@H](CCC(N)=O)C(=O)O [Dynorphin A] | 0.116% | -0.279% | 10.9% | -3.55% | 0.0408% | 5% | 2.9% | -7.47% | 4.56% | -9.63% | -9.59% | 0.355% | 0.562% | 0.211% | 0.227%
NC(=O)[C@H](Cc1ccccc1)NC(=O)[C@H](Cc1c[nH]c2ccccc12)NC(=O)[C@@H]1CCCN1C(=O)[C@@H](N)Cc1ccc(O)cc1 [Endomorphin-1] | -1.12% | 1.74% | – | 0.589% | -1.89% | – | -5.29% | 7.53% | – | 0.676% | -3.23% | – | 0.195% | -0.597% | –
